The data set deals with human PKK mRNA. Briefly: Antisense inhibition of human PKK mRNA in HepaRG cells, 5,000 nM (Example 2). In kind it is cell-based. Summed up: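 Percent inhibition of PKK mRNA is relative to untreated control, with qRT-PCR (probe set RTS3454) values adjusted to total RNA by RIBOGREEN. Oligonucleotides, fully phosphorothioate 2′-MOE gapmers, were delivered at 5,000 nM by electroporation into 20,000 HepaRG cells/well for about 24 h.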

[1] abbreviates: HepaRG cells, 5,000 nM antisense oligonucleotide, 5-10-5 gapmers, Table 16.
Setting [2] is: Table 9 experiment, HepaRG cells, 20,000 cells per well, electroporation with 5,000 nM antisense oligonucleotide, approx. 24 hours, PKK mRNA by RT-PCR (RTS3454), relative to untreated control cells.
[3] abbreviates: Table 10 experiment, HepaRG cells, 20,000 cells per well, electroporation with 5,000 nM antisense oligonucleotide, approx. 24 hours, PKK mRNA by RT-PCR (RTS3454), relative to untreated control cells.
[4] abbreviates: HepaRG cells, 5,000 nM antisense oligonucleotide, 5-10-5 gapmers, Table 17.
[5] abbreviates: Table 7, HepaRG cells, electroporation with 5,000 nM antisense oligonucleotide, approx. 24 hours, PKK mRNA by RT-PCR (RTS3454), relative to untreated control cells.
Where [6] appears, read: HepaRG cells, electroporation, 5,000 nM antisense oligonucleotide, approx. 24 hours, primer probe set RTS3454, relative to untreated control cells, Table 12.
Setting [7] is: human PKK mRNA, HepaRG cells, 5,000 nM antisense oligonucleotide, Table 18.
[8] abbreviates: human PKK mRNA, HepaRG cells, 5-10-5 motif oligonucleotides targeting SEQ ID NO: 1 and 10.
Where [9] appears, read: HepaRG cells, electroporation, 5,000 nM antisense oligonucleotide, approx. 24 hours, primer probe set RTS3454, relative to untreated control cells, Table 11.
Setting [10] is: HepaRG cells, electroporation with 5,000 nM antisense oligonucleotide, approximately 24 hours, PKK mRNA by RT-PCR (RTS3454), relative to untreated control cells, Table 5 experiment.
The mark [11] stands for this setting: Table 8, HepaRG cells, electroporation with 5,000 nM antisense oligonucleotide, approx. 24 hours, PKK mRNA by RT-PCR (RTS3454), relative to untreated control cells.
[12] abbreviates: Table 13, human PKK mRNA in HepaRG cells, 5-10-5 gapmers.
Setting [13] is: HepaRG cells, electroporation with 5,000 nM antisense oligonucleotide, approximately 24 hours, PKK mRNA by RT-PCR (RTS3454), relative to untreated control cells, Table 6 experiment.

Strand notation (5' to 3'): a small letter for the sugar, then the base; units joined by * are phosphorothioate-linked, units joined directly phosphodiester-linked; [ ] holds rarer units or linkages, { } end groups; capitals alone tell only the bases. e = 2'-O-(2-methoxyethyl) (MOE); [5mC] = 5-methylcytosine; d = 2'-deoxy (DNA)

In the case of “546944 (eG*e[5mC]*e[5mC]*eA*e[5mC]*dT*dA*dA*d[5mC]*d[5mC]*d[5mC]*dA*d[5mC]*d[5mC]*dT*e[5mC]*eT*eT*eA*eA; antisense) [compound 546944]”, under setting [1], the % inhibition (commonly how much of the control response was suppressed) amounted to 42%.

Consider “546325 (antisense e[5mC]*eA*eG*eT*eT*dG*dG*dT*dA*dT*dA*dA*dA*dT*dT*eG*eT*eG*e[5mC]*eT) [compound 546325]”, for which the “% inhibition” value under setting [2] was 74% and the “% inhibition” value under setting [3] turned out to be 79%. “547770 (antisense eT*eG*e[5mC]*eT*eT*dT*d[5mC]*dT*dG*d[5mC]*d[5mC]*d[5mC]*dA*dA*d[5mC]*e[5mC]*eT*e[5mC]*eT*eA) [compound 547770]”: the “% inhibition” value under setting [4] is 48%. In the case of “547404 (eA*eG*eT*e[5mC]*eA*dA*d[5mC]*dT*d[5mC]*d[5mC]*d[5mC]*dG*dG*dG*dT*eA*eA*eA*eT*eT; antisense) [compound 547404]”, the “% inhibition” value under setting [5] was determined as 64%. For the substance “547555 (eT*eG*eT*e[5mC]*eT*d[5mC]*d[5mC]*dT*dT*d[5mC]*d[5mC]*dA*d[5mC]*dT*dT*eG*e[5mC]*eT*e[5mC]*e[5mC]; antisense) [compound 547555]”, the “% inhibition” value under setting [6] is given as 58%. Turning to “548762 (antisense eT*e[5mC]*eT*eA*dA*d[5mC]*dA*dG*dT*dA*dT*d[5mC]*dA*e[5mC]*eT*eG*eT) [compound 548762]”, under setting [7], the “% inhibition” value is on record as 16%. Regarding “546239 (eG*eT*eT*e[5mC]*eT*dT*dT*dT*dG*d[5mC]*dA*dG*dG*dT*dT*eA*eA*eA*eA*eG; antisense) [compound 546239]”, the “% inhibition” value under setting [5] was 47%. Consider “547449 (antisense eT*eT*eT*eT*eA*dT*dT*dT*dG*dT*dG*dA*dG*dA*dA*eA*eG*eG*eT*eG) [compound 547449]”, for which the “% inhibition” value runs as follows: under setting [2], 71%; under setting [3], 73%. In the case of “547668 (e[5mC]*eA*eA*e[5mC]*eT*dA*dT*dA*dA*d[5mC]*dA*dG*dT*dA*dT*e[5mC]*eA*e[5mC]*eT*eG; antisense) [compound 547668]”, the “% inhibition” value under setting [8] stood at 44%. “548751 (antisense eA*e[5mC]*eT*eG*dT*dA*d[5mC]*dT*dA*dG*dT*dT*dT*d[5mC]*e[5mC]*eT*eA*eT) [compound 548751]”: under setting [7], the “% inhibition” value was 53%.

As for “546375 (antisense eG*eA*e[5mC]*e[5mC]*e[5mC]*d[5mC]*d[5mC]*d[5mC]*dA*dG*dG*d[5mC]*dT*d[5mC]*dA*eG*eA*eA*eT*eT) [compound 546375]”, the “% inhibition” value under setting [9] was 48%. Consider “546222 (antisense eG*eG*eG*eT*eG*dA*dT*dA*dG*dG*dT*dG*d[5mC]*dA*dG*eA*eT*eG*eG*eT) [compound 546222]”, for which, under setting [5], the “% inhibition” value came to 12%. Take “547471 (antisense e[5mC]*e[5mC]*eT*eT*eT*d[5mC]*dT*d[5mC]*d[5mC]*dT*dT*d[5mC]*dG*dA*dG*eA*eA*eG*e[5mC]*e[5mC]) [compound 547471]”: the “% inhibition” value under setting [2] is 58% and the “% inhibition” value under setting [3] came to 43%. Consider “547305 (antisense eA*e[5mC]*e[5mC]*eA*eA*dA*d[5mC]*d[5mC]*dT*dT*dT*dT*d[5mC]*dT*d[5mC]*e[5mC]*eA*eT*eG*eT) [compound 547305]”, for which the “% inhibition” value under setting [10] stood at 47%.

As for “546313 (antisense eG*eG*e[5mC]*eG*eA*dT*dA*dT*d[5mC]*dA*dT*dG*dA*dT*dT*e[5mC]*e[5mC]*e[5mC]*eT*eT) [compound 546313]”, the “% inhibition” value under setting [2] is 60% and the “% inhibition” value under setting [3] is 75%. Take “547414 (eT*eG*eG*eG*eA*dG*dT*dA*dA*dA*dG*dA*dA*dT*dA*eA*eG*eT*eG*eA; antisense) [compound 547414]”: the “% inhibition” value under setting [11] came out at 76%. Same read-out and setting: for “546252 (eT*e[5mC]*eT*eT*eG*dG*d[5mC]*dA*dA*dA*d[5mC]*dA*dT*dT*d[5mC]*eA*e[5mC]*eT*e[5mC]*e[5mC]; antisense) [compound 546252]” the value was 73%. “546784 (eG*eG*e[5mC]*eA*eG*dG*dG*dA*dG*dG*dT*dG*dG*dA*dT*eT*eA*eT*eT*e[5mC]; antisense) [compound 546784]”: under setting [12], the “% inhibition” value was 58%. Turning to “547416 (e[5mC]*eT*eT*eA*e[5mC]*dA*dG*dT*d[5mC]*dT*dT*d[5mC]*dT*dG*dG*eG*eA*eG*eT*eA; antisense) [compound 547416]”, the “% inhibition” value under setting [11] is reported as 79%. Consider “546796 (eG*eT*eA*e[5mC]*eT*d[5mC]*dA*d[5mC]*d[5mC]*dG*dG*dT*dA*d[5mC]*dT*e[5mC]*eT*eG*e[5mC]*e[5mC]; antisense) [compound 546796]”, for which the “% inhibition” value under setting [12] came to 82%.

For “546163 (eA*e[5mC]*eT*eT*eG*d[5mC]*dT*dG*dG*dA*dA*dG*dA*dA*dA*eA*e[5mC]*eT*eG*eA; antisense) [compound 546163]”, under setting [10], the “% inhibition” value was 42%.

In the case of “548707 (DNA eA*e[5mC]*eT*dA*dG*dT*dT*dT*d[5mC]*d[5mC]*dT*dA*dT*eA*eA*e[5mC]; antisense) [compound 548707]”, the “% inhibition” value (HepaRG cells, 5,000 nM antisense oligonucleotide, human PKK mRNA, Table 18) came to 10%. As to “547586 (eT*eA*eT*eA*eA*d[5mC]*dA*dG*dT*dA*dT*d[5mC]*dA*d[5mC]*dT*eG*eT*e[5mC]*e[5mC]*eT; antisense) [compound 547586]”, the “% inhibition” value (human PKK mRNA in HepaRG cells, 5-10-5 gapmers, Table 14) is 82%.

As to “547444 (antisense e[5mC]*eT*eA*eT*eA*dG*dA*dT*dG*d[5mC]*dG*d[5mC]*d[5mC]*dA*dA*eA*e[5mC]*eA*eT*e[5mC]) [compound 547444]”, the “% inhibition” value under setting [11] is 71%. As for “547705 (antisense eG*e[5mC]*eA*e[5mC]*e[5mC]*d[5mC]*dA*dA*dT*dA*d[5mC]*dA*dG*dG*dG*e[5mC]*e[5mC]*eA*eG*eG) [compound 547705]”, under setting [1], the “% inhibition” value turned out to be 69%. As to “547542 (antisense eA*eT*eA*e[5mC]*eT*d[5mC]*dG*d[5mC]*d[5mC]*dT*dT*dT*dG*dT*dG*eA*e[5mC]*eT*e[5mC]*eG) [compound 547542]”, the “% inhibition” value under setting [6] came out at 35%. The same measure, in the same setting: for “546684 (eT*eA*e[5mC]*eT*e[5mC]*dT*d[5mC]*dT*dA*d[5mC]*dA*dT*dA*d[5mC]*dT*e[5mC]*eA*eG*eG*eA; antisense) [compound 546684]” the value was 71%. Take “547744 (eT*eG*eG*eT*eG*dG*dT*dG*dG*dG*dA*dT*dT*dG*dG*eT*eG*eG*e[5mC]*eG; antisense) [compound 547744]”: the “% inhibition” value under setting [4] worked out at 65%. As to “546308 (antisense eA*e[5mC]*eT*eT*eT*dA*dT*dA*dG*dT*dT*dT*dT*dG*dG*eT*eG*eA*eA*eT) [compound 546308]”, the “% inhibition” value reads like this: under setting [2], 57%; under setting [3], 43%. For the substance “547521 (antisense e[5mC]*eT*eT*e[5mC]*eA*dG*d[5mC]*d[5mC]*dA*dG*dA*d[5mC]*dA*dT*dT*eG*eT*e[5mC]*e[5mC]*eT) [compound 547521]”, the “% inhibition” value under setting [9] was 58%. Still for that read-out and setting: with “546363 (antisense e[5mC]*eT*eT*e[5mC]*eT*d[5mC]*dA*dT*dG*d[5mC]*dT*dG*dG*dT*dG*eA*e[5mC]*eT*eG*e[5mC]) [compound 546363]” the figure was 81%.

Turning to “547391 (eA*eT*eA*eT*e[5mC]*d[5mC]*dA*dG*dA*dT*dA*dT*dG*dG*dT*eG*eT*eT*eT*eT; antisense) [compound 547391]”, the “% inhibition” value under setting [5] turned out to be 32%. In the case of “548780 (antisense eT*eG*eT*e[5mC]*d[5mC]*dT*dA*dT*dA*dA*d[5mC]*dT*dA*eT*eA*eA*e[5mC]) [compound 548780]”, under setting [7], the “% inhibition” value stood at 22%.

As to “546181 (antisense eT*eG*eA*e[5mC]*e[5mC]*dA*d[5mC]*dA*dT*dT*dG*d[5mC]*dT*dT*d[5mC]*eA*eA*eG*eG*eA) [compound 546181]”, the “% inhibition” value under setting [13] is 75%. On to “547655 (eA*eA*eT*eA*eT*d[5mC]*dA*d[5mC]*dT*dG*dT*d[5mC]*d[5mC]*dT*dA*eT*eA*eA*e[5mC]*eT; antisense) [compound 547655]”, for which, under setting [8], the “% inhibition” value is 37%. With “546146 (eT*eG*eA*eG*eT*d[5mC]*dA*dG*dA*d[5mC]*dA*dT*d[5mC]*d[5mC]*dA*e[5mC]*eA*eG*eG*eA; antisense) [compound 546146]”, the “% inhibition” value under setting [10] came out at 72%. “547576 (e[5mC]*eT*eA*eG*eT*dT*dT*d[5mC]*d[5mC]*dT*dA*dT*dA*dA*d[5mC]*eT*eG*e[5mC]*eT*eG; antisense) [compound 547576]”: under setting [12], the “% inhibition” value is listed as 29%. For the substance “546913 (eG*eT*eA*e[5mC]*e[5mC]*dT*dA*dT*dA*dT*d[5mC]*dA*d[5mC]*dT*dG*eT*eA*eA*e[5mC]*eT; antisense) [compound 546913]”, the “% inhibition” value under setting [1] is on record as 38%. “547324 (antisense e[5mC]*eA*eT*eT*eG*d[5mC]*dT*dT*d[5mC]*dA*dA*dG*dG*dA*dA*eT*eG*eT*e[5mC]*e[5mC]) [compound 547324]”: the “% inhibition” value under setting [13] is reported as 76%.

Source of the values: patent US11840686B2, “Modulation of prekallikrein (PKK) expression” (Ionis Pharmaceuticals, Inc., priority 2013, dated 2023).
